Reference: US20060110767A1, “Genotyping assay to predict cytochrome P4503A5 exression” (priority 2001, published 2006)
Read-outs that look alike come from different tables or passages of the source.

What was measured:
[1] = target: T1, CYP3A5 (Homo sapiens, UniProt P20815); details: cited from earlier work
[2] = target: CYP3A7 (Homo sapiens, UniProt P24462); details: cited from earlier work
[3] = target: T1, CYP3A5; details: cited from earlier work; remark: listed apart in the source
[4] = target: T2, CYP3A4 (Homo sapiens, UniProt P08684); details: cited from earlier work
[5] = system: CYP3A; details: cited from earlier work
[6] = target: T1, CYP3A5; details: pH 7.4
Procedure: (§1) Midazolam, ^15N3-midazolam, 1′-OH MDZ and 4-OH MDZ were provided by Roche Laboratories. All incubations were performed in duplicate in solutions containing 0.1 M potassium phosphate (pH 7.4) and 20 to 100 μg human liver microsomes or 50 to 100 μg intestinal homogenates or 10 pmol of recombinant CYP3A4 or CYP3A5 (Gentest). Midazolam (final concentration, 8 μM) was added to the diluted tissue preparations, and the mixtures were preincubated at 37° C. for 5 min. We added NADPH (final concentration, 1 mM) to initiate the reaction. Incubation of human liver microsomes lasted for 2 min; incubation of recombinant CYP3A and intestinal samples lasted for 4 min. Reactions were terminated by the addition of 1 mL of ice-cold 0.1 M Na2CO3, pH ˜11. We used NCI GC-MS to measure the quantities of extracted 1′-OH MDZ and 4-OH MDZ (ref. 14). Reaction velocities and product ratios are presented as mean±SD. Statistical comparisons of mean data for different genotypes were performed by using a 2-sided, unpaired t test with unequal variances

[7] = target: T2, CYP3A4; details: pH 7.4
Procedure: as §1

[8] = target: CYP4503A5 (Homo sapiens, UniProt P20815); details: cited from earlier work
[9] = system: CYP4503A enzymes; details: result in words (Wandel et al.); cited from earlier work
[10] = result in words (Wrighton et al.; Gillam et al.)

T1 sequence (P20815 whole entry): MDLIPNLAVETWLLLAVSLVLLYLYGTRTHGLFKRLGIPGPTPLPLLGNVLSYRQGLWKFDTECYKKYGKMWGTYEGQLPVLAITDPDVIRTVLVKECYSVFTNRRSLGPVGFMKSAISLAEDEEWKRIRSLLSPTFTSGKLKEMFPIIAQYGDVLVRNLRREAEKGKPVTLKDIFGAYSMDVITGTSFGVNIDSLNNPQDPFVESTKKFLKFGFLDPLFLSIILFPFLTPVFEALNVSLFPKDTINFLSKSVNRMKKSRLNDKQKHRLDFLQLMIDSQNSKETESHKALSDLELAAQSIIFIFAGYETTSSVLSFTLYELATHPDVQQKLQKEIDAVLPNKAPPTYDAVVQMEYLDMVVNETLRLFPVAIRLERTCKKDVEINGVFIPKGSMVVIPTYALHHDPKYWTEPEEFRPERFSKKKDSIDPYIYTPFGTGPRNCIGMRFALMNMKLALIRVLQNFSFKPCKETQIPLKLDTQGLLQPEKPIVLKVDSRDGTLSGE
Chain of CYP3A7 (P24462 whole entry): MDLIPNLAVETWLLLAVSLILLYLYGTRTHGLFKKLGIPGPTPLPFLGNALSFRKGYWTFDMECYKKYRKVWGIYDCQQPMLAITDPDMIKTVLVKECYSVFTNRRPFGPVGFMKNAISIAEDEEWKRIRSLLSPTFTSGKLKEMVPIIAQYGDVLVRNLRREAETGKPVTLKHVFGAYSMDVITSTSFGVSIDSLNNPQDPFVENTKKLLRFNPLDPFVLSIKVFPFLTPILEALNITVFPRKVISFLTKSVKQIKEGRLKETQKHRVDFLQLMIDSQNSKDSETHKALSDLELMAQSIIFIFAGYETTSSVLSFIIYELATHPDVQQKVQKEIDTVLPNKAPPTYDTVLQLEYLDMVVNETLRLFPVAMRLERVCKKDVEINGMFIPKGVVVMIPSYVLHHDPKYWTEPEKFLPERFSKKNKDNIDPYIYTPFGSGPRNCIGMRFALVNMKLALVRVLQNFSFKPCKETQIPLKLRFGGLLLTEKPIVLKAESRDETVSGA
T2 sequence (P08684 whole entry): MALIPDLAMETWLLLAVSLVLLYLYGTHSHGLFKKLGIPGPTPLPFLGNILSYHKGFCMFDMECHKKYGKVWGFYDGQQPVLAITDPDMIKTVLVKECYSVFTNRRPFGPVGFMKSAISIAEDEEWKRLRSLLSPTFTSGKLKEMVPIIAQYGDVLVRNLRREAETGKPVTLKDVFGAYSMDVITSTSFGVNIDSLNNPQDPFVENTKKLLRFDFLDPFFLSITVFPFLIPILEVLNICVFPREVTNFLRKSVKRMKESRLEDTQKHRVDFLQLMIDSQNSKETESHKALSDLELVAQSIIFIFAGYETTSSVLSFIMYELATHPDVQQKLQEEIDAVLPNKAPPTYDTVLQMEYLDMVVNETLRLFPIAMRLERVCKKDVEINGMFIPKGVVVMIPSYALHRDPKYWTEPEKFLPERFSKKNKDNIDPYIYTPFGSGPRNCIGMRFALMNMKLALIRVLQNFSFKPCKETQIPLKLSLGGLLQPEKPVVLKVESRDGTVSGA
Chain of CYP4503A5 (P20815 whole entry): as the sequence (P20815 whole entry) above

Compound: C#C[C@]1(O)CC[C@H]2[C@@H]3CCc4cc(O)ccc4[C@H]3CC[C@@]21C [17α-ethinyl-estradiol]
- CYP3A5 catalytic activity towards substrate [1, 10]: No CYP3A5 catalytic activity

Compound: C[C@]12CCC(=O)CC1CC[C@@H]1[C@@H]2CC[C@]2(C)C(=O)CC[C@@H]12 (some centres unmarked) [Androstanedione]
- CYP isoforms expressed in cells 3A7 [2]: ++
- CYP isoforms expressed in cells 3A5 [3]: ++
- CYP isoforms expressed in cells 3A4 [4]: +++

Compound: NC(=O)N1c2ccccc2C=Cc2ccccc21 [Carbamazepine]
- CYP isoforms expressed in cells 3A7 [2]: +
- Catalytic activity in human liver microsomes adult ([5]; adult, carbamazepine metabolism, result in words): Present
- Catalytic activity in human liver microsomes fetus ([5]; fetus, CBZ-E formation (?), result in words): CBZ-E
- CYP isoforms expressed in cells 3A5 [3]: ++
- CYP isoforms expressed in cells 3A4 [4]: +++

Compound: C[C@]12CCC(=O)C=C1CC[C@@H]1[C@@H]2[C@@H](O)C[C@@]2(C)[C@H]1CC[C@]2(O)C(=O)CO [Cortisol]
- CYP isoforms expressed in cells 3A7 [2]: −
- CYP isoforms expressed in cells 3A5 [3]: ++
- CYP isoforms expressed in cells 3A4 [4]: +++

Compound: COc1ccc2c(c1)[C@]13CCCC[C@@H]1[C@H](C2)N(C)CC3 [Dextromethorphan]
- Catalytic activity in human liver microsomes adult (%) [5]: 100%
- Catalytic activity in human liver microsomes fetus (%) [5]: 30%

Compound: CN1C(=O)CN=C(c2ccccc2)c2cc(Cl)ccc21 [Diazepam]
- Catalytic activity in human liver microsomes Child (%) [5]: 140 (3-12 mo) %
- Catalytic activity in human liver microsomes adult (%) [5]: 100%
- Catalytic activity in human liver microsomes fetus (%) [5]: <5%

Compound: CCOc1ccc2c3c1O[C@H]1[C@@H](O)C=C[C@H]4[C@@H](C2)N(C)CC[C@@]341 [Ethylmorphine]
- CYP3A5 catalytic activity towards substrate [1, 10]: considerable catalytic activity
- Catalytic activity in human liver microsomes adult (%) ([5]; adult, relative to adult rate = 100%): 100%
- Catalytic activity in human liver microsomes fetus (%) ([5]; fetus, relative to adult rate = 100%): 100%
- CYP isoforms expressed in cells 3A5 [3]: ++
- CYP isoforms expressed in cells 3A4 [4]: +

Compound: Cc1ncc2n1-c1ccc(Cl)cc1C(c1ccccc1F)=NC2 [Midazolam]
- ratio of 1′-OH MDZ to 4-OH MDZ [6]: 16.1
- ratio of 1′-OH MDZ to 4-OH MDZ [7]: 5.5
- formation rate of 1-hydroxy-midazolam for CYP3A5 versus CYP3A4 [1]: considerably higher
- rate of formation of 4-hydroxy-midazolam with CYP3A4 and CYP3A5 [1]: similar
- alpha- to 4-hydroxylation of midazolam, CYP4503A5 versus CYP4503A3 or CYP4503A4 [8]: far greater
- increase of midazolam metabolism with CYP4503A5 expression [8]: 2.7
- CYP isoforms expressed in cells 3A5 [3]: +++

Compound: CC(=O)[C@H]1CC[C@H]2[C@@H]3CCC4=CC(=O)CC[C@]4(C)[C@H]3CC[C@]12C [Progesterone]
- CYP isoforms expressed in cells 3A5 ([3]; 6β-hydroxylation): ++
- CYP isoforms expressed in cells 3A4 [4]: +++

Compound: C[C@]12CC[C@H]3[C@@H](CCC4=CC(=O)CC[C@@]43C)[C@@H]1CC[C@@H]2O [Testosterone]
- Catalytic activity in human liver microsomes newborn (%) [5]: 30-40%
- CYP isoforms expressed in cells 3A5 [3]: ++
- CYP isoforms expressed in cells 3A4 [4]: +++

Compound: NS(=O)(=O)Cc1noc2ccccc12 [Zonisamide]
- CYP isoforms expressed in cells 3A7 [2]: ++
- CYP isoforms expressed in cells 3A5 [3]: +
- CYP isoforms expressed in cells 3A4 [4]: +++

Compound: CCOC(=O)C1=C(C)NC(C)=C(C(=O)OC)C1c1cccc([N+](=O)[O-])c1 (centres unmarked) [nitrendipine]
- effect on liver microsomal hydroxylation of midazolam [9]: inhibits

Compound: aflatoxin B1
- 8,9-epoxidation step (activation step) by CYP3A5 [1]: efficiently catalyzes
- rate of 3α-hydroxylation (inactivation step) by CYP3A5 relative to CYP3A4 [1]: approximately 1%

Compound: aflatoxins
- CYP3A5 catalytic activity towards substrate [1]: No CYP3A5 catalytic activity
